The IC50 is the concentration at which inhibition is half-maximal. A high value points to lower potency.

What all share (assay): cell-based
The target in experiment [1] is EP2 (Homo sapiens, UniProt P43116).
Experiment [2] has as its target PTGER2 (EP2) (Homo sapiens, UniProt P43116).
Experiment [3] deals with PTRGER4 (EP4) (Homo sapiens, UniProt P35408).
The target in experiment [4] is EP4 (Homo sapiens, UniProt P35408).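 Also: inhibition of PGE2-evoked (6 nM) cAMP accumulation in BT549 breast cancer cells endogenously expressing EP4, cAMP read by HTRF competitive immunoassay after 30 min at room temperature.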
Chain of EP4 (P35408 whole entry): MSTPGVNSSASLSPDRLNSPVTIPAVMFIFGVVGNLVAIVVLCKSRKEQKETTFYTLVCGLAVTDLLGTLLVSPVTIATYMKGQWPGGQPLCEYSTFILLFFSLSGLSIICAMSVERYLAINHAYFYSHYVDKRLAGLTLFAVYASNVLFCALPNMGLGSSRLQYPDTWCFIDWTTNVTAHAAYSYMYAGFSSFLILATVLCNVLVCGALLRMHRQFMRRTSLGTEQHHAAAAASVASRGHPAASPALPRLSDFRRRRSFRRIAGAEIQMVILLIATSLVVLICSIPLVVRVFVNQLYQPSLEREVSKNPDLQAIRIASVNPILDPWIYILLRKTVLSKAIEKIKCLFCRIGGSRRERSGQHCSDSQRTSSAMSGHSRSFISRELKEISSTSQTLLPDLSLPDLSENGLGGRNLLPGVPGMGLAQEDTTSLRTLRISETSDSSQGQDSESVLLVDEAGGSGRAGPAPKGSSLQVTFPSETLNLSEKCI
Text: Human tumor cell lines expressing endogenously either EP4 or EP2 are used and cAMP accumulation in cells upon PGE2 stimulation is monitored.
As a detection method for cAMP the HTRF (homogeneous time resolved fluorescence) Cisbio kit (HTRF cAMP dynamic 2 kit 20′000 tests Cisbio Cat. #62AM4PEC) was used, which is based on a competitive immunoassay using a Cryptate-labeled anti-cAMP antibody and d2-labeled cAMP. Native cAMP produced by cells or unlabeled cAMP (for the standard curve) compete with exogenously added d2-labeled cAMP (acceptor) for binding to monoclonal anti-cAMP-Eu3+ Cryptate (donor). A FRET signal (Fluorescence Resonance Energy Transfer) is obtained only if the labeled anti-cAMP antibody binds the d2 labelled cAMP, thus the specific signal (i.e. energy transfer) is inversely proportional to the concentration of cAMP in the standard or sample.
The BT549 cells (NCI/No. 0507282) are detached from culture dishes with a cell dissociation buffer (Invitrogen, 13151-014), and collected in growing medium (GM: RPM11640 (Invitrogen 21875)/10% FCS, 1% Penicilin/streptomycin). Cells are counted washed and resuspended in assay buffer (AB; HBSS, 20 mM HEPES, 0.2% BSA; 2 mM IBMX). 4′000 cells in 5 μl of AB are seeded per well of a small volume 384 well plate (black with flat bottom, Greiner 784076).
Stock solutions of test compounds are made at a concentration of 10 mM in DMSO, and serially diluted in DMSO to concentrations required for inhibition dose response curves (tested concentration range 30 μM-0.4 nM; 30 μM-0.015 nM or 1 μM-0.01 nM).
PGE2 (Cayman 14010, stock solution: 6 μM in DMSO) is used as agonist at 6 nM final concentration, corresponding to EC80.
Two point five microliters of diluted compounds are transferred into the assay plate. Plate is pre-incubated 45 minutes at room temperature. Subsequently, 2.5 microliters of PGE2 (final conc. 6 nM) are transferred into the assay plate. Plate is incubated 30 minutes at room temperature.
For each compound concentration the percentage of cAMP compared to DMSO control value as average±STDEV (each concentration is measured in duplicate) is calculated.
When compounds were measured multiple times, mean values are given.

Molecules are shown by their SMILES.

Chain of PTRGER4 (EP4) (P35408 whole entry): as above
Chain of PTGER2 (EP2) (P43116 whole entry): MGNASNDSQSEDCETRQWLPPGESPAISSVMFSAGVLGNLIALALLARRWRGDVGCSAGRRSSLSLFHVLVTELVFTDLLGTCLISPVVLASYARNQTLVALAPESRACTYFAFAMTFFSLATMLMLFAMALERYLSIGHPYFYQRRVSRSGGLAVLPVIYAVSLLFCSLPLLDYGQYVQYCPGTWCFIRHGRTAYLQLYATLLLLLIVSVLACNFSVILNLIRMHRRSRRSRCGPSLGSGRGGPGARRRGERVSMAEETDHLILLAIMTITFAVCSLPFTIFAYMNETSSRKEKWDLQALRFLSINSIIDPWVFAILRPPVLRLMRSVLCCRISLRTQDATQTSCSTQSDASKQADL
Chain of EP2 (P43116 whole entry): as above

With `Cc1cc(-c2cc(NCCc3c(F)cc(Br)cc3F)ncn2)cc(C)c1O` [Example 250, 4-{6-[2-(4-Bromo-2,6-difluoro-phenyl)-ethylamino]-pyrimidin-4-yl}-2,6-dimethyl-phenol], the IC50 in experiment [1] was determined as 856 nM; in experiment [2], 78 nM; in experiment [3], 169 nM; in experiment [4], 887 nM.

Consider `CCOc1cc(-c2cc(NCCc3c(F)cc(Br)cc3F)nc(C)n2)sc1-c1noc(=O)[nH]1` [Example 156, 3-(5-{6-[2-(4-Bromo-2,6-difluoro-phenyl)-ethylamino]-2-methyl-pyrimidin-4-yl}-3-ethoxy-thiophen-2-yl)-[1,2,4]oxadiazol-5(4H)-one], for which the IC50 in experiment [1] amounted to 28 nM; in experiment [2], 9 nM; in experiment [3], 31 nM; in experiment [4] it was 16 nM.

For the molecule `CCOc1cc(-c2cc(NCCc3c(F)cc(Br)cc3F)ncn2)sc1CC(=O)O` [Example 48, (5-{6-[2-(4-Bromo-2,6-difluoro-phenyl)-ethylamino]-pyrimidin-4-yl}-3-ethoxy-thiophen-2-yl)-acetic acid], the IC50 came out at 46 nM in experiment [1], 28 nM in experiment [2], 25 nM in experiment [3] and 51 nM in experiment [4].

On to `Cc1ccc(CCNc2cc(-c3cc(F)c(C(=O)O)s3)ncn2)cc1` [Example 1, 3-Fluoro-5-[6-(2-p-tolyl-ethylamino)-pyrimidin-4-yl]thiophene-2-carboxylic acid], for which the half-inhibitory concentration (IC50) in experiment [1] was 86 nM; in experiment [2], 240 nM; in experiment [3], 402 nM; in experiment [4], 65 nM.

In the case of `CCOc1cc(-c2cc(NCCc3ccc(Br)c(F)c3)ncn2)sc1-c1noc(=O)[nH]1` [Example 108, 3-(5-{6-[2-(4-Bromo-3-fluoro-phenyl)-ethylamino]-pyrimidin-4-yl}-3-ethoxy-thiophen-2-yl)-[1,2,4]oxadiazol-5(4H)-one], the IC50 in experiment [1] came to 113 nM; in experiment [2], 28 nM; in experiment [3], 5 nM; in experiment [4], 15 nM.

Turning to `COc1cc(-c2cc(NCCc3c(F)cc(Br)cc3F)ncn2)sc1C(=O)O` [Example 176, 5-{6-[2-(4-Bromo-2,6-difluoro-phenyl)-ethylamino]-pyrimidin-4-yl}-3-methoxy-thiophene-2-carboxylic acid], the IC50 came out at 9 nM in experiment [1], 22 nM in experiment [2], 75 nM in experiment [3] and 6 nM in experiment [4].

As to `CCOc1cc(-c2cc(NCCc3ccccc3C)ncn2)sc1C(=O)O` [Example 55, 3-Ethoxy-5-[6-(2-o-tolyl-ethylamino)-pyrimidin-4-yl]-thiophene-2-carboxylic acid], the IC50 in experiment [1] is 65 nM; in experiment [2], 89 nM; in experiment [3], 1000 nM; in experiment [4], 396 nM.

Consider `CNc1cc(-c2cc(NCCc3c(F)cc(Br)cc3F)ncn2)ccc1C(=O)O` [Example 231, 4-{6-[2-(4-Bromo-2,6-difluoro-phenyl)-ethylamino]-pyrimidin-4-yl}-2-methylamino-benzoic acid], for which the IC50 in experiment [1] worked out at 13 nM; in experiment [2], 16 nM; in experiment [3], 94 nM; in experiment [4], 43 nM.

Regarding `CCOc1cc(-c2cc(NCCc3ccc(OC(F)(F)F)cc3OC)ncn2)sc1C(=O)O` [Example 210, 3-Ethoxy-5-{6-[2-(2-methoxy-4-trifluoromethoxy-phenyl)-ethylamino]-pyrimidin-4-yl}-thiophene-2-carboxylic acid], the IC50 in experiment [1] amounted to 615 nM; in experiment [2], 294 nM; in experiment [3], 20 nM; in experiment [4], 21 nM.

Turning to `CCOc1cc(-c2cc(NCCc3ccc(Br)cc3)ncn2)sc1C(=O)O` [Example 54, 5-{6-[2-(4-Bromo-phenyl)-ethylamino]-pyrimidin-4-yl}-3-ethoxy-thiophene-2-carboxylic acid], the IC50 in experiment [1] amounted to 31 nM; in experiment [2] it was 60 nM; in experiment [3] it was 17 nM; in experiment [4], 10 nM.

As for `CNc1cc(-c2cc(NCCc3c(F)cc(Br)cc3F)ncn2)ccc1C(=O)NCCO` [Example 276, 4-{6-[2-(4-Bromo-2,6-difluoro-phenyl)-ethylamino]-pyrimidin-4-yl}-N-(2-hydroxy-ethyl)-2-methylamino-benzamide], the IC50 in experiment [1] was found to be 59 nM; in experiment [2], 23 nM; in experiment [3], 37 nM; in experiment [4], 72 nM.

On to `CCOc1cc(-c2cc(NCCc3cc(Br)ccc3SC)ncn2)sc1-c1noc(=O)[nH]1` [Example 275, 3-(5-{6-[2-(5-Bromo-2-methylsulfanyl-phenyl)-ethylamino]-pyrimidin-4-yl}-3-ethoxy-thiophen-2-yl)-[1,2,4]oxadiazol-5(4H)-one], for which the IC50 in experiment [1] was determined as 163 nM; in experiment [2], 125 nM; in experiment [3] it was 90 nM; in experiment [4] it was 18 nM.

For the molecule `CCOc1cc(-c2cc(NCCc3ccc(Br)cc3)ncn2)sc1NC(N)=O` [Example 146, (5-{6-[2-(4-Bromo-phenyl)-ethylamino]-pyrimidin-4-yl}-3-ethoxy-thiophen-2-yl)-urea], the IC50 was 249 nM in experiment [1], 39 nM in experiment [2], 14 nM in experiment [3] and 189 nM in experiment [4].

Turning to `CCOc1cc(-c2cc(NCCc3ccc(O)c(OC)c3)ncn2)sc1-c1noc(=O)[nH]1` [Example 118, 3-(3-Ethoxy-5-{6-[2-(4-hydroxy-3-methoxy-phenyl)-ethylamino]-pyrimidin-4-yl}-thiophen-2yl)-[1,2,4]oxadiazol-5(4H)-one], the IC50 was 266 nM in experiment [1], 488 nM in experiment [2], 316 nM in experiment [3] and 148 nM in experiment [4].

For the molecule `CCOc1cc(-c2cc(NCCc3c(F)cc(Br)cc3F)ncn2)sc1-c1noc(=S)[nH]1` [Example 295, 3-(5-{6-[2-(4-Bromo-2,6-difluoro-phenyl)-ethylamino]-pyrimidin-4-yl}-3-ethoxy-thiophen-2-yl)-[1,2,4]oxadiazole-5(4H)-thione], the concentration for half-maximal inhibition (IC50) in experiment [1] was 84 nM; in experiment [2] it was 12 nM; in experiment [3] it was 2 nM; in experiment [4] it was 2 nM.

Regarding `CCOc1cc(Br)ccc1CCNc1cc(-c2ccc(C(=O)O)c(OCC)c2)ncn1` [Example 51, 4-{6-[2-(4-Bromo-2-ethoxy-phenyl)-ethylamino]-pyrimidin-4-yl}-2-ethoxy-benzoic acid], the IC50 in experiment [1] amounted to 72 nM; in experiment [2], 39 nM; in experiment [4], 684 nM.

As for `CCOc1cc(-c2cc(NCCc3ccccc3Br)ncn2)sc1C(=O)O` [Example 70, 5-{6-[2-(2-Bromo-phenyl)-ethylamino]-pyrimidin-4-yl}-3-ethoxy-thiophene-2-carboxylic acid], the IC50 was 139 nM in experiment [1], 260 nM in experiment [2] and 554 nM in experiment [4].

Turning to `CCOc1cc(-c2cc(NCCc3ccccc3Cl)ncn2)sc1C(=O)O` [Example 78, 5-{6-[2-(2-Chloro-phenyl)-ethylamino]-pyrimidin-4-yl}-3-ethoxy-thiophene-2-carboxylic acid], the IC50 in experiment [1] is 149 nM; in experiment [2], 176 nM; in experiment [4], 458 nM.

Regarding `CCOc1cc(-c2cc(NCCc3ccc(Br)cc3)ncn2)sc1-c1noc(N)n1` [Example 139, {6-[5-(5-Amino-[1,2,4]oxadiazol-3-yl)-4-ethoxy-thiophen-2-yl]-pyrimidin-4-yl}-[2-(4-bromo-phenyl)-ethyl]-amine], the IC50 in experiment [1] turned out to be 290 nM; in experiment [3], 6 nM; in experiment [4], 149 nM.

Take `CCOc1cc(-c2cc(NCCc3ccc(C)c(C)c3)ncn2)sc1-c1noc(=O)[nH]1` [Example 83, 3-(5-{6-[2-(3,4-Dimethyl-phenyl)-ethylamino]-pyrimidin-4-yl}-3-ethoxy-thiophen-2-yl)-[1,2,4]oxadiazol-5(4H)-one]: the IC50 in experiment [1] is 208 nM; in experiment [3] it was 14 nM; in experiment [4], 13 nM.

Turning to `CCOc1cc(-c2cc(NCCc3cccc(C(F)(F)F)c3)ncn2)sc1C(=O)O` [Example 61, 3-Ethoxy-5-{6-[2-(3-trifluoromethyl-phenyl)-ethylamino]-pyrimidin-4-yl}-thiophene-2-carboxylic acid], the IC50 in experiment [1] was 715 nM; in experiment [3], 363 nM; in experiment [4] it was 161 nM.

Consider `CCOc1cc(-c2cc(NCCc3ccc(O)cc3)ncn2)sc1C(=O)O` [Example 69, 3-Ethoxy-5-{6-[2-(4-hydroxy-phenyl)-ethylamino]-pyrimidin-4-yl}-thiophene-2-carboxylic acid], for which the IC50 in experiment [1] stood at 382 nM; in experiment [3], 915 nM; in experiment [4], 170 nM.

Take `CCOc1cc(-c2cc(NCCc3ccc(C(F)(F)F)cc3F)ncn2)sc1-c1noc(=O)[nH]1` [Example 93, 3-(3-Ethoxy-5-{6-[2-(2-fluoro-4-trifluoromethyl-phenyl)-ethylamino]-pyrimidin-4-yl}-thiophen-2yl)-[1,2,4]oxadiazol-5(4H)-one]: the IC50 in experiment [1] was found to be 509 nM; in experiment [3] it was 3 nM; in experiment [4], 6 nM.

Turning to `CCOc1cc(-c2cc(NCCc3ccc(Br)cc3)ncn2)sc1-c1noc(NCCO)n1` [Example 141, 2-[3-(5-{6-[2-(4-Bromo-phenyl)-ethylamino]-pyrimidin-4-yl}-3-ethoxy-thiophen-2-yl)-[1,2,4]oxadiazol-5-ylamino]-ethanol], the IC50 came to 381 nM in experiment [1], 8 nM in experiment [3] and 168 nM in experiment [4].

Take `COc1cccc(CCNc2cc(-c3cc(C(F)(F)F)c(C(=O)O)s3)ncn2)c1` [Example 63, 5-{6-[2-(3-Methoxy-phenyl)-ethylamino]-pyrimidin-4-yl}-3-trifluoromethyl-thiophene-2-carboxylic acid]: the values for the IC50 in experiment [1], in experiment [3] and in experiment [4] were 644 nM, 233 nM and 105 nM, respectively.

These data come from US11712438B2, “Phenyl derivatives as PGE2 receptor modulators” (IDORSIA PHARMACEUTICALS LTD, priority 2017, dated 2023).
